Data from patent US7420068B2, “Crystalline composition containing escitalopram” (H. Lundbeck A/S, priority 2004, dated 2008).
Where a name gives a salt, the structure may show the parent alone.

What was measured:
Type in all cases: physicochemical
[1] = Particle size of prior-art crystalline products (background statement); details: product of the known preparation process
[2] = Flow properties of prior-art crystalline products (background statement); details: product of the known preparation process
[3] = Particle size distribution by laser diffraction (Sympatec Helos, 1 bar dispersive pressure)
From the text: As used herein, “particle size distribution” means the cumulative volume size distribution of equivalent spherical diameters as determined by laser diffraction at 1 bar dispersive pressure in a Sympatec Helos equipment. “Median particle size” “MPS” and X50 refer, correspondingly, each to the median or 50% quantile of said particle size distribution. “X10” and “X95” refer, correspondingly, to the 10% respectively the 95% quantile. “X10/X50” and “X50/X95” refer to the ratio between X10 and X50 respectively X50 and X95.

particle size [1]	flow properties [2]	X50 (median particle size) ([3]; S-diol batches, production scale recrystallisation from ethanol) [µm]	X10/X50 ([3]; S-diol batches, ratio of 10% quantile to median)	X50/X95 ([3]; S-diol batches, ratio of median to 95% quantile)	Particle size at quantile 10% ([3]; Sympatec Helos, quantile 10%) [μm]	Particle size at quantile 50% ([3]; Sympatec Helos, quantile 50%) [μm]	Particle size at quantile 90% ([3]; Sympatec Helos, quantile 90%) [μm]	SMILES
2-20 μm	similarly poor	–	–	–	–	–	–	CN(C)CCC[C@@]1(c2ccc(F)cc2)OCc2cc(C#N)ccc21.O=C(O)C(=O)O [escitalopram oxalate, (S)-1-[3-(dimethylamino)propyl]-1-(4-fluorophenyl)-1,3-dihydro-5-isobenzofurancarbonitrile oxalate]
2-20 μm	very poor	–	–	–	–	–	–	CN(C)CCCC1(c2ccc(F)cc2)OCc2cc(C#N)ccc21 (stereo not shown) [citalopram hydrobromide]
–	–	171	0.13	0.44	13	163	455	CN(C)CCC[C@@]1(c2ccc(F)cc2)OCc2cc(C#N)ccc21 [Example 1, escitalopram oxalate]
